In patent publication US10947273B2, “Peptides of use in the preventive and curative treatment of alopecia” (Institut Europeen de Biologie Cellulaire, priority 2015, dated 2021):
“Also recorded” adds a separate entry of the source. The star is where a group is joined. Palmitoyl = CCCCCCCCCCCCCCCC(=O)*; Chol = cholesterol residue

Experiments:
NGF = NGF secretion by NHDF (ELISA/BioPlex); format: cell-based, human; settings: 48h
Protocol: (§1) NHDF, HFDPC, HHFK and NHEM cells were treated with the peptides studied for 48h. At the end of the treatment, cell supernatants were collected and stored at −80° C. until analysis. The factors of interest secreted into the supernatant were assayed by ELISA® (R&D) or BioPlex® (BioRad®).
(§2) The results are expressed as percent increase in the concentration of the factor present in the supernatant relative to the untreated control. The intensity of the effect varies as a function of the concentration of the peptide studied and of the cell type treated.

HGF [1] = experiment: qPCR (TLDA) HGF gene expression in HFDPC; format: cell-based, human; set-up: dose or concentration left out as unconfirmed; settings: peptide, 24 hours, relative to untreated controls
Protocol: (§3) RNA was extracted and purified from cell pellets using the RNA XS Kit (Macherey-Nagel). RNA quantification was carried out with a NanoDrop device and sample quality was verified on a Bioanalyzer with RNA 6000 Nano chips (Agilent). cDNA was synthesized from 300 ng of RNA using the High-Capacity cDNA Reverse Transcription Kit (LifeTech). Quality-control qPCR assays of the cDNA were carried out in microplates on the reference gene, GAPDH, and the SIRT1 gene.
(§4) Final qPCR experiments were carried out in a 1 μl volume on microfluidic cards (TaqMan Low Density Arrays, LifeTech) and the ABI 7900HT qPCR device. Amplification reactions were performed in duplicate using 1 to 2 ng of cDNA per qPCR reaction and TaqMan Universal Master Mix II (LifeTech).
(§5) Ct values were obtained using the RQ Manager software. For analyses of qPCR results, Ct values were limited to 35 cycles and the duplicate assays are averaged. The GeneXPro software was used for the studies of stability and of selection of the best reference genes. Expression variations are calculated by the relative quantification method and are expressed as percent increase in expression of the gene of interest relative to the untreated controls.

SCF = SCF secretion by NHDF (ELISA/BioPlex); format: cell-based, human; settings: 10^−7 M, 48h
Protocol: as §1, §2

HGF [2] = experiment: HGF secretion by NHDF (ELISA/BioPlex); format: cell-based, human; settings: 48h
Protocol: as §1, §2

BMP2 [3] = experiment: BMP2 secretion by HFDPC (ELISA/BioPlex); format: cell-based, human; settings: 10^−9 M, 48h
Protocol: as §1, §2

VEGF [4] = experiment: VEGF secretion by HFDPC (ELISA/BioPlex); format: cell-based, human; settings: 48h
Protocol: as §1, §2

VEGF [5] = experiment: VEGF secretion by NHDF (ELISA/BioPlex); format: cell-based, human; settings: 48h
Protocol: as §1, §2

PDGF = PDGF secretion by HFDPC (ELISA/BioPlex); format: cell-based, human; settings: 48h
Protocol: as §1, §2

[6] = tested on: immortalized human skin keratinocytes (HaCaT); experiment: CellTiter-Blue proliferation of HaCaT; format: cell-based; settings: 10^−5M, 72 hours
Protocol: Cell proliferation and viability were evaluated in vitro with a kit from Promega, CellTiter-Blue® Cell Viability Assay, for estimating the number of living cells present in the culture. This kit is based on detection, by measurement of fluorescence, of conversion of the dye, resazurin, into a fluorescent product (resorufin) by living and thus metabolically active cells.
The effect of the peptides tested, (1) and (9), at 4 different concentrations (10^−5, 10^−7, 10^−9 and 10^−11M) was examined on five cell types: immortalized human skin keratinocytes (HaCaT), human hair follicular keratinocytes (HHFK), normal human dermal fibroblasts (NHDF), hair follicle dermal papilla cells (HFDPC), and normal human epidermal melanocytes (NHEM) exposed to the molecule studied for 72 hours.

[7] = tested on: microdissected hairs from scalp surgery specimens; experiment: Growth of isolated hair ex vivo; format: cell-based, human; settings: for Growth at D 11/D 12 Vs Control: ex vivo isolated hair
Protocol: (§6) This study was carried out on microdissected hairs from scalp surgery specimens from women aged 52 to 71 years. Isolated hairs were kept alive for 11 to 12 days in Williams medium, under conventional cell culture conditions (37° C., 5% CO2). […]
(§7) To evaluate the effect of (1), (6) or (9) on hair growth, the hairs were photographed and their lengths measured using image analysis software. Thus, the growth of the hairs between D0 and D11/D12 could be calculated and compared with that of the untreated control. At the end of the treatments (D11 or D12), the hairs were collected and frozen or fixed for immunolabeling and histological staining.

[8] = tested on: genes whose expression is reduced in subjects characterized by alopecia; experiment: qPCR (TLDA) overall statement, genes involved in alopecia, HFDPC; format: cell-based, human; settings: summary of Table 1
Protocol: (§8) To study the effect of 9 peptides on these genes, HFDPC were treated for 24 hours with the molecules tested at 10^−7M and 10^−9M concentrations.
as §3, §4, §5

KGF [9] = experiment: qPCR (TLDA) KGF gene expression in HFDPC; format: cell-based, human; set-up: dose or concentration left out as unconfirmed; settings: peptide, 24 hours, relative to untreated controls
Protocol: as §3, §4, §5

follicular markers = experiment: Follicular markers in isolated hair ex vivo (immunolabeling); format: cell-based, human; settings: end of treatment D11 or D12, value = marker increased
Protocol: as §6, §7

IGF1 = experiment: qPCR (TLDA) IGF1 gene expression in HFDPC; format: cell-based, human; settings: relative to untreated controls
Protocol: as §8, §3, §4, §5

BMP2 [10] = experiment: qPCR (TLDA) BMP2 gene expression in HFDPC; format: cell-based, human; settings: peptide 10^−7, 24 hours, relative to untreated controls
Protocol: as §8, §3, §4, §5

KGF [11] = experiment: KGF secretion by HFDPC (ELISA/BioPlex); format: cell-based, human; settings: 48h
Protocol: as §1, §2

HGF [12] = experiment: HGF secretion by HFDPC (ELISA/BioPlex); format: cell-based, human; settings: 48h
Protocol: as §1, §2

VEGF [13] = experiment: VEGF secretion by NHEM (ELISA/BioPlex); format: cell-based, human; settings: 10^−7 M, 48h
Protocol: as §1, §2

HGF [14] = experiment: HGF secretion by NHEM (ELISA/BioPlex); format: cell-based, human; settings: 10^−7 M, 48h
Protocol: as §1, §2

HGF [15] = experiment: HGF secretion by HHFK (ELISA/BioPlex); format: cell-based, human; settings: 10^−7 M, 48h
Protocol: as §1, §2

VEGF [16] = experiment: qPCR (TLDA) VEGF gene expression in HFDPC; format: cell-based, human; settings: peptide 10^−5 M (table title), 24 hours, relative to untreated controls
Protocol: as §3, §4, §5

Chol-Ala-Arg-Pro-Ala-Lys-NH2 (Chol-ARPAK-NH2) [(7)]
NGF secretion, percent increase relative to untreated control (NGF; 10^−7 M): NGF 11% | % stimulation HGF gene expression (HGF [1]): 49% | SCF secretion, percent increase relative to untreated control (SCF): SCF 10% | HGF secretion, percent increase relative to untreated control (HGF [2]; 10^−7 M): HGF 104%

H-Ala-Arg-Pro-Ala-Lys-OH (H-ARPAK-OH) [Peptide (1)]
BMP2 secretion, percent increase relative to untreated control (BMP2 [3]): BMP2 22% | VEGF secretion, percent increase relative to untreated control (VEGF [4]; 10^−7 M): VEGF 9% | VEGF secretion, percent increase relative to untreated control (VEGF [4]; 10^−9 M): VEGF 4% | NGF secretion, percent increase relative to untreated control (NGF; 10^−9 M): NGF 13% | VEGF secretion, percent increase relative to untreated control (VEGF [5]; 10^−7 M): VEGF 4% | VEGF secretion, percent increase relative to untreated control (VEGF [5]; 10^−9 M): VEGF5% | PDGF secretion, percent increase relative to untreated control (PDGF; 10^−7 M): PDGF 31% | PDGF secretion, percent increase relative to untreated control (PDGF; 10^−9 M): PDGF 23% | stimulation of proliferation of HaCaT [6]: +15% | Growth at D 11/D 12 Vs Control ([7]; 10^−1 M): No effect | Growth at D 11/D 12 Vs Control ([7]; 10^−9 M): +40% | growth increase compared with minoxidil sulphate ([7]; peptide 10^−9M, minoxidil sulphate 10^−5 M): close to that obtained after treatment with minoxidil sulphate | hair growth after 11 to 12 days of treatment ex vivo (in words) ([7]; summary of Table 3): stimulate hair growth | stimulation of genes whose expression is reduced in alopecia (in words) [8]: stimulate several genes | % stimulation KGF gene expression (KGF [9]): 14% | Follicular markers increased Vs Control (follicular markers; 10^−1 M): Coll IV; also recorded: Laminin-5 | Follicular markers increased Vs Control (follicular markers; 10^−9 M): Coll IV and CD34 | % stimulation IGF1 gene expression (IGF1; peptide 10^−7, 24 hours): 32% (10^−7) | HGF secretion, percent increase relative to untreated control (HGF [2]; 10^−9 M): HGF 18% | % stimulation BMP2 gene expression (BMP2 [10]): 26% (10^−7) | KGF secretion, percent increase relative to untreated control (KGF [11]; 10^−7 M): KGF 8% | KGF secretion, percent increase relative to untreated control (KGF [11]; 10^−9 M): KGF 25%

H-Arg-Pro-Ala-Lys-OH (H-RPAK-OH) [(8)]
% stimulation KGF gene expression (KGF [9]): 14% | HGF secretion, percent increase relative to untreated control (HGF [2]; 10^−5 M): HGF 8% | HGF secretion, percent increase relative to untreated control (HGF [12]; 10^−5 M): HGF 26% | HGF secretion, percent increase relative to untreated control (HGF [12]; 10^−7 M): HGF 129%

Palm-Ala-Arg-Ala-Ala-Lys-NH2 (Palmitoyl-ARAAK-NH2; SMILES CCCCCCCCCCCCCCCC(=O)N[C@@H](C)C(=O)N[C@@H](CCCNC(=N)N)C(=O)N[C@@H](C)C(=O)N[C@@H](C)C(=O)N[C@@H](CCCCN)C(N)=O) [(5)]
VEGF secretion, percent increase relative to untreated control (VEGF [13]): VEGF 5% | NGF secretion, percent increase relative to untreated control (NGF; 10^−5 M): NGF 15% | VEGF secretion, percent increase relative to untreated control (VEGF [5]; 10^−5 M): VEGF 12% | PDGF secretion, percent increase relative to untreated control (PDGF; 10^−5 M): PDGF 39% | PDGF secretion, percent increase relative to untreated control (PDGF; 10^−7 M): PDGF 55% | stimulation of genes whose expression is reduced in alopecia (in words) [8]: stimulate several genes | HGF secretion, percent increase relative to untreated control (HGF [14]): HGF 8% | HGF secretion, percent increase relative to untreated control (HGF [15]): HGF 104% | % stimulation IGF1 gene expression (IGF1; peptide 10^−7, 24 hours): 29% (10^−7) | % stimulation IGF1 gene expression (IGF1; peptide 10^−9, 24 hours): 16% (10^−9) | HGF secretion, percent increase relative to untreated control (HGF [2]; 10^−7 M): HGF 21% | % stimulation VEGF gene expression (VEGF [16]): 10%
